A short description of series [1]: Solubility of Indibulin in solvents. It counts as physicochemical. The source says: (§1) Indibulin is obtained by chemical synthesis as a white crystalline powder. Its solubility in hydrophilic solvents is poor. […] Due to these properties, the bioavailability of pure Indibulin is very low, as is Indibulin's bioavailability in common pharmaceutical dosage forms, e.g., powder, granula, tablets or capsules.
However, these organic solvents cannot be used for application in humans due to their toxicity.

Series [2] is described as follows: Bioavailability of pure Indibulin. It counts as in vivo.
Text: as §1

For another series, the system named is microtubules. Kind of series: Polymerization of microtubules in a cell-free system. It counts as biochemical. The source says:
(§2) Indibulin is a synthetic small molecule tubulin inhibitor with significant antitumor activity in vitro and in vivo. […] Furthermore, the molecule selectively blocks cell cycle progression at metaphase.

Series [3] relates to microtubules in tumor cells. The series is described as follows: Polymerization of microtubules in tumor cells. It counts as cell-based.
Text: as §2

A short description of series [4]: Neurological symptoms in animal experiments. The format is in vivo, animals. From the text:
(§3) In vitro, Indibulin exerts significant antitumor activity against a variety of malignancies (e.g., prostate, brain, breast, pancreas, and colon). […] Based on its mechanism of action, it is expected to target all types of solid tumors. […] Another advantage for further development is its easy synthesis, in contrast to other tubulin-inhibitory compounds.

Series [5] in a line: Tolerability in preclinical experiments in rodents. It counts as in vivo. As to conditions: highly effective doses.
Text: as §3

`O=C(Nc1ccncc1)C(=O)c1cn(Cc2ccc(Cl)cc2)c2ccccc12` [Indibulin, N-(pyridine-4-yl)-[1-(4-chlorobenzyl)-indole-3-yl]glyoxylic acid amide]: the “solubility in organic solvents” value in series [1] (dimethylformamide, dimethylsulfoxide and N-methylpyrrolidone) was “sufficient solubility”. Further, in series [1] (roughly >50% w/v acetic acid or lactic acid), the “solubility in highly concentrated organic acids” value was “relatively good solvents”. The “solubility in hydrophilic solvents” value in series [1] (water, methanol, ethanol or 2-propanol) was “practically insoluble”. Besides, the bioavailability entry in series [2] was “very low”. The polymerization of microtubules entry (with microtubules; in series [3]) was “inhibits polymerization of microtubules” in each case. In addition, in series [4], the neurological symptoms entry was “No neurological symptoms”. In addition, the tolerability entry in series [5] is given as “very well tolerated”.

(Values after patent US20060280787A1, “Pharmaceutical formulation of the tubulin inhibitor indibulin for oral administration with improved pharmacokinetic properties, and process for the manufacture thereof” (priority 2005, published 2006).)
